Reference: US20230067406A1, “Herbicide Combinations Comprising Glufosinate and Flumioxazin” (BASF SE, priority 2020, published 2023)

Tested on: Kochia (Bassia scoparia)
Test: Greenhouse post emergence treatment, herbicidal activity by visual control on a 0 to 100 scale
Assay type: in vivo
Conditions: scale 0 to 100, mean of three replications
Excerpt: Synergism can be described as an interaction where the combined effect of two or more compounds is greater than the sum of the individual effects of each of the compounds. The presence of a synergistic effect in terms of percent control, between two mixing partners (X and Y) can be calculated using the Colby equation (Colby, S. R., 1967, Calculating Synergistic and Antagonistic Responses in Herbicide Combinations, Weeds, 15, 21-22):
When the observed combined control effect is greater than the expected (calculated) combined control effect (E), then the combined effect is synergistic.
Weed included Kochia (Bassia scoparia). However, the herbicidal effect afforded by the compounds, mixtures or compositions is not limited to these species. The analysis of synergism or antagonism between the mixtures or compositions was determined using Colby's equation. • Test Method: […]
Pots with 0.3 L of volume were filled with soil (SunGroco Horticulture, Agawam, MA 01001) to grow one plant per pot in the greenhouse until the desired developmental stage.
Environmental conditions inside the greenhouse were setup for 25° C., 75% relative humidity, and 12 h light day-1 with natural sunlight or 500 μmol m−1 s−1 PAR for cloudy days. […]
The test period extended to 2 to 21 days after treatment. During this time, the plants were tended, and their response to the individual treatments was evaluated. […]

Structure (SMILES)	Herbicidal activity against Kochia (21 DAT), Found (Glufosinate 420 g ai/ha alone)	Herbicidal activity against Kochia (21 DAT), Found (Flumioxazin 2.5 g ai/ha alone)
CP(=O)(O)CCC(N)C(=O)O (racemic) [Glufosinate, (2RS)-2-amino-4-[hydroxy(methyl)phosphinoyl]butyric acid]	25	–
C#CCN1C(=O)COc2cc(F)c(N3C(=O)C4=C(CCCC4)C3=O)cc21 [Flumioxazin, flumioxazin]	–	4
